Where “and” joins values, the source holds several entries; their conditions need not be identical. Identical values can stand only once.
Key:
Format in all cases: cell-based
FKBP12^WT-Nluc = target: T1, FKBP12^WT-Nluc (Homo sapiens, UniProt P62942); test: FKBP12WT-Nluc dual luciferase assay (293FT); settings: 293FT FKBP12WT-Nluc, 24 h
T1 construct: expressed in transfected cells; host or cells: 293FT
Protocol: (§1) Dual luciferase assays were performed using 293FT FKBP12^WT-Nluc and FKBP12^F36V-Nluc cells. In brief, cells were plated at 2000 cells per well in 20 µL of appropriate media in 384-well white culture plates (Corning), allowed to adhere overnight, and 100 nL of compounds were added using a Janus Workstation pin tool (PerkinElmer) for 24 h at 37 °C. To evaluate Fluc signal, plates were brought to room temperature, 20 µL of Dual-Glo Reagent (Promega) was added for 10 min and luminescence was measured on an Envision 2104 plate reader (PerkinElmer). Subsequently, 20 µL of Dual-Glo Stop & Glo Reagent (Promega) was added for 10 min and luminescence was again measured to capture Nluc signal. DMSO-normalized ratios of Nluc/Fluc signal was analyzed and plotted using GraphPad PRISM v8[6].

FKBP12^F36V-Nluc = target: T2, FKBP12^F36V-Nluc (Homo sapiens, UniProt P62942, F37V); test: FKBP12F36V-Nluc dual luciferase assay (293FT); settings: 293FT FKBP12F36V-Nluc, 24 h
T2 construct: expressed in transfected cells; host or cells: 293FT
Protocol: as §1

[1] = test system: PATU-8902 LACZ-FKBP12^F36V clone; test: Antiproliferation, PATU-8902 LACZ-FKBP12F36V clone, 3D-spheroid (CellTiter-Glo)
Protocol: (§2) Cell viability was assayed in 2D-adherent or ultra-low adherent 3D-spheroids using CellTiter-Glo (Promega)[6],[15]. Luminescence was measured on an Envision 2104 plate reader (PerkinElmer) and Fluostar Omega Reader (BMG Labtech) and data was analyzed using GraphPad PRISM v8. Synergy assessments were performed using CellTiter-Glo (Promega) with the following modifications to the protocol described in the ref. [34]. In brief, EWS502 cells were plated at 1000 cells per well in 50 µL of appropriate media in 384-well white culture plates (Corning) allowed to adhere overnight, and 100 nL of compounds were added using a Janus Workstation pin tool (PerkinElmer) for 72 h. Cell viability was measured by addition of 10 µL of CellTiter-glo (Promega), followed by incubation for 15 minutes at room temperature. Luminescence was measured on an Envision 2104 plate reader (PerkinElmer) and data was analyzed using GraphPad PRISM v8.

[2] = test system: PATU-8902 FKBP12^F36V-KRAS^G12V; KRAS^-/- clone; test: Antiproliferation, PATU-8902 FKBP12F36V-KRASG12V; KRAS-/- clone, 3D-spheroid (CellTiter-Glo); settings: FKBP12F36V-KRASG12V, KRAS-/-, 3D-spheroid, replicate values
Protocol: as §2

[3] = test system: PATU-8902 LACZ-FKBP12^F36V clone; test: Antiproliferation, PATU-8902 LACZ-FKBP12F36V clone, 2D-monolayer (CellTiter-Glo)
Protocol: as §2

[4] = test system: PATU-8902 FKBP12^F36V-KRAS^G12V; KRAS^-/- clone; test: Antiproliferation, PATU-8902 FKBP12F36V-KRASG12V; KRAS-/- clone, 2D-monolayer (CellTiter-Glo)
Protocol: as §2

[5] = log10[compound] (M) -5.30103, single replicates
[6] = log10[compound] (M) -5.80103, single replicates
[7] = log10[compound] (M) -6.30103, single replicates
[8] = log10[compound] (M) -6.80103, single replicates
[9] = log10[compound] (M) -7.30103, single replicates
[10] = log10[compound] (M) -7.80103, single replicates
[11] = log10[compound] (M) -8.30103, single replicates
[12] = log10[compound] (M) -8.80103, single replicates
[13] = log10[compound] (M) -9.30103, single replicates
[14] = log10[compound] (M) -9.80103, single replicates
[15] = log10[compound] (M) -5.69897, replicate values
[16] = log10[compound] (M) -6.19897, replicate values
[17] = log10[compound] (M) -6.69897, replicate values
[18] = log10[compound] (M) -7.19897, replicate values
[19] = log10[compound] (M) -7.69897, replicate values
[20] = log10[compound] (M) -8.19897, replicate values
[21] = log10[compound] (M) -8.69897, replicate values
[22] = log10[compound] (M) -9.19897, replicate values
[23] = log10[compound] (M) -9.69897, replicate values
[24] = log10[compound] (M) -10.199, replicate values

T2 sequence (P62942 2-108 F37V limits assumed): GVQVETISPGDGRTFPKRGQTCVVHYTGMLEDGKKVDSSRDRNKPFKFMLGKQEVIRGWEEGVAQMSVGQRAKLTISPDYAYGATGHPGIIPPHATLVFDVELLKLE
T1 sequence (P62942 2-108 limits assumed): as the sequence (P62942 2-108 F37V limits assumed) above, with V36F counted along it

With CC[C@H](C(=O)N1CCCC[C@H]1C(=O)O[C@H](CCc1ccc(OC)c(OC)c1)c1ccccc1OCC(=O)NCCCCCCCCNc1ccc2c(c1)C(=O)N(C1CCCNC1=O)C2=O)c1cc(OC)c(OC)c(OC)c1 (stereo partly drawn) [dTAG-47-NEG] the “DMSO-normalized ratio of Nluc/Fluc signal” value (FKBP12^WT-Nluc; [5]) was 112.983 and 133.743 and 109.836 and 118.552, the “DMSO-normalized ratio of Nluc/Fluc signal” value (FKBP12^WT-Nluc; [6]) was 88.6495 and 108.291 and 97.1172 and 97.9891 and the “DMSO-normalized ratio of Nluc/Fluc signal” value (FKBP12^WT-Nluc; [7]) was 84.7288 and 98.5773 and 69.8656 and 85.4355. The “DMSO-normalized ratio of Nluc/Fluc signal” value (FKBP12^WT-Nluc; [8]) was 111.882 and 117.981 and 82.1602 and 97.6002, the “DMSO-normalized ratio of Nluc/Fluc signal” value (FKBP12^WT-Nluc; [9]) was 80.9372 and 116.345 and 96.4274 and 100.006 and the “DMSO-normalized ratio of Nluc/Fluc signal” value (FKBP12^WT-Nluc; [10]) was 91.8268 and 107.899 and 89.5705 and 101.339. The “DMSO-normalized ratio of Nluc/Fluc signal” value (FKBP12^WT-Nluc; [11]) was 96.8786 and 106.696 and 109.119 and 135.476, the “DMSO-normalized ratio of Nluc/Fluc signal” value (FKBP12^WT-Nluc; [12]) was 100.791 and 113.508 and 74.3676 and 105.961 and the “DMSO-normalized ratio of Nluc/Fluc signal” value (FKBP12^WT-Nluc; [13]) was 140.604 and 140.668 and 98.5907 and 115.954. The “DMSO-normalized ratio of Nluc/Fluc signal” value (FKBP12^WT-Nluc; [14]) was 87.4488 and 119.502 and 82.5871 and 99.1801, the “DMSO-normalized ratio of Nluc/Fluc signal” value (FKBP12^F36V-Nluc; [5]) was 107.204 and 133.65 and 125.111 and 106.713 and the “DMSO-normalized ratio of Nluc/Fluc signal” value (FKBP12^F36V-Nluc; [6]) was 105.202 and 100.221 and 87.7709 and 98.1806. For the same compound, the “DMSO-normalized ratio of Nluc/Fluc signal” value (FKBP12^F36V-Nluc; [7]) was 114.516 and 112.689 and 63.1557 and 96.6176, the “DMSO-normalized ratio of Nluc/Fluc signal” value (FKBP12^F36V-Nluc; [8]) was 115.914 and 94.4993 and 79.2868 and 83.2258 and the “DMSO-normalized ratio of Nluc/Fluc signal” value (FKBP12^F36V-Nluc; [9]) was 95.8358 and 90.9039 and 76.6637 and 114.52. The “DMSO-normalized ratio of Nluc/Fluc signal” value (FKBP12^F36V-Nluc; [10]) was 93.9184 and 139.979 and 82.2221 and 91.2143, the “DMSO-normalized ratio of Nluc/Fluc signal” value (FKBP12^F36V-Nluc; [11]) was 91.746 and 110.613 and 89.992 and 115.75 and the “DMSO-normalized ratio of Nluc/Fluc signal” value (FKBP12^F36V-Nluc; [12]) was 108.43 and 84.8167 and 129.223 and 114.161. For the same compound, the “DMSO-normalized ratio of Nluc/Fluc signal” value (FKBP12^F36V-Nluc; [13]) was 128.159 and 120.38 and 100.065 and 103.942, the “DMSO-normalized ratio of Nluc/Fluc signal” value (FKBP12^F36V-Nluc; [14]) was 95.5174 and 90.4935 and 78.1755 and 112.193 and the DMSO-normalized antiproliferation [1, 15] was 97.4751 and 103.304 and 87.3281 and 98.4167. The DMSO-normalized antiproliferation [1, 16] was 115.352 and 92.3949 and 111.46 and 98.7799, the DMSO-normalized antiproliferation [1, 17] was 115.675 and 135.633 and 120.527 and 101.762 and the DMSO-normalized antiproliferation [1, 18] was 132.781 and 104.479 and 141.691 and 94.0763. For the same compound, the DMSO-normalized antiproliferation [1, 19] was 113.77 and 136.938 and 126.087 and 111.72, the DMSO-normalized antiproliferation [1, 20] was 141.265 and 116.402 and 127.835 and 120.491 and the DMSO-normalized antiproliferation [1, 21] was 117.15 and 123.8 and 115.155 and 128.638. For the same compound, the DMSO-normalized antiproliferation [1, 22] was 109.537 and 110.734 and 119.818 and 124.491, the DMSO-normalized antiproliferation [1, 23] was 101.506 and 115.774 and 112.487 and 105.932 and the DMSO-normalized antiproliferation [1, 24] was 91.3412 and 111.541 and 123.365 and 101.901. For the same compound, the DMSO-normalized antiproliferation ([2]; log10[compound] (M) -5.69897) was 82.482 and 87.6886 and 103.208 and 99.4884, the DMSO-normalized antiproliferation ([2]; log10[compound] (M) -6.19897) was 113.805 and 93.9254 and 98.397 and 96.9436 and the DMSO-normalized antiproliferation ([2]; log10[compound] (M) -6.69897) was 123.227 and 117.041 and 133.19 and 118.656. The DMSO-normalized antiproliferation ([2]; log10[compound] (M) -7.19897) was 81.3571 and 110.96 and 121.028 and 111.088, the DMSO-normalized antiproliferation ([2]; log10[compound] (M) -7.69897) was 122.42 and 111.862 and 100.29 and 122.927 and the DMSO-normalized antiproliferation ([2]; log10[compound] (M) -8.19897) was 142.5 and 118.093 and 120.226 and 127.732. For the same compound, the DMSO-normalized antiproliferation ([2]; log10[compound] (M) -8.69897) was 121.028 and 116.139 and 119.196 and 128.785, the DMSO-normalized antiproliferation ([2]; log10[compound] (M) -9.19897) was 130.238 and 109.673 and 113.755 and 125.733 and the DMSO-normalized antiproliferation ([2]; log10[compound] (M) -9.69897) was 131.246 and 139.231 and 145.63 and 98.1297. The DMSO-normalized antiproliferation ([2]; log10[compound] (M) -10.199) was 85.3442 and 82.6434 and 122.826 and 96.2419, the DMSO-normalized antiproliferation [3, 15] was 66.1984 and 57.9546 and 80.6556 and 62.9228 and the DMSO-normalized antiproliferation [3, 16] was 65.6828 and 85.4625 and 78.6518 and 76.5663. The DMSO-normalized antiproliferation [3, 17] was 102.61 and 78.6871 and 110.55 and 102.23, the DMSO-normalized antiproliferation [3, 18] was 104.837 and 92.9898 and 109.382 and 132.676 and the DMSO-normalized antiproliferation [3, 19] was 141.282 and 157.373 and 114.442 and 100.315. For the same compound, the DMSO-normalized antiproliferation [3, 20] was 95.0388 and 126.489 and 147.158 and 156.144, the DMSO-normalized antiproliferation [3, 21] was 96.771 and 104.289 and 112.53 and 88.7912 and the DMSO-normalized antiproliferation [3, 22] was 117.441 and 113.828 and 97.736 and 88.8651. For the same compound, the DMSO-normalized antiproliferation [3, 23] was 104.694 and 108.624 and 153.334 and 121.648, the DMSO-normalized antiproliferation [3, 24] was 108.17 and 124.096 and 109.419 and 107.694 and the DMSO-normalized antiproliferation [4, 15] was 74.7022 and 73.4799 and 58.8574 and 61.1381. The DMSO-normalized antiproliferation [4, 16] was 87.1466 and 90.577 and 94.4269 and 106.738, the DMSO-normalized antiproliferation [4, 17] was 79.5247 and 86.4598 and 105.965 and 87.3723 and the DMSO-normalized antiproliferation [4, 18] was 125.17 and 98.7432 and 116.205 and 122.113. The DMSO-normalized antiproliferation [4, 19] was 90.1708 and 148.45 and 111.91 and 91.8745, the DMSO-normalized antiproliferation [4, 20] was 119.425 and 116.853 and 127.987 and 145.045 and the DMSO-normalized antiproliferation [4, 21] was 87.2626 and 88.668 and 110.555 and 114.959. For the same compound, the DMSO-normalized antiproliferation [4, 22] was 135.954 and 152.721 and 117.778 and 94.3712, the DMSO-normalized antiproliferation [4, 23] was 100.893 and 117.34 and 101.502 and 86.7015 and the DMSO-normalized antiproliferation [4, 24] was 99.6176 and 90.8045 and 95.2889 and 85.7881.

Source: PMC7501296, “Rapid and direct control of target protein levels with VHL-recruiting dTAG molecules” (Nature Communications, 2020)
